From patent publication US10183914B2 (BAYER CROPSCIENCE AKTIENGESELLSCHAFT, priority 2014, dated 2019)

Experiments:
[1] = logp (HCOOH), physicochemical characterization
Oryza sativa [2] = experiment: Pre-emergence herbicidal effect and crop plant compatibility; type: in vivo; conditions: 80 g/ha, 3 weeks
Outline: (§1)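 Application to covering soil post-sowing: WP or EC, 600–800 L/ha, 0.2% wetting agent. Readout: visual % efficacy after 3 weeks, greenhouse, untreated plants as 0%.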

Zea mays [3] = experiment: as above; type: in vivo; conditions: 3 weeks
Outline: as §1

Alopecurus myosuroides [4] = experiment: Pre-emergence herbicidal effect; type: in vivo; conditions: 3 weeks
Outline: as §1

Amaranthus retroflexus = experiment: Pre-emergence herbicidal effect; type: in vivo; conditions: 3 weeks
Outline: as §1

Avena fatua [5] = experiment: Pre-emergence herbicidal effect; type: in vivo; conditions: 3 weeks
Outline: as §1

Echinochloa crus-galli [6] = experiment: Pre-emergence herbicidal effect; type: in vivo; conditions: 3 weeks
Outline: as §1

Lolium multiflorum [7] = experiment: Pre-emergence herbicidal effect; type: in vivo; conditions: 3 weeks
Outline: as §1

Matricaria inodora = experiment: Pre-emergence herbicidal effect; type: in vivo; conditions: 3 weeks
Outline: as §1

Polygonum convolvulus = experiment: Pre-emergence herbicidal effect; type: in vivo; conditions: 3 weeks
Outline: as §1

Setaria viridis [8] = experiment: Pre-emergence herbicidal effect; type: in vivo; conditions: 3 weeks
Outline: as §1

Stellaria media = experiment: Pre-emergence herbicidal effect; type: in vivo; conditions: 3 weeks
Outline: as §1

Veronica persica = experiment: Pre-emergence herbicidal effect; type: in vivo; conditions: 3 weeks
Outline: as §1

Viola tricolor = experiment: Pre-emergence herbicidal effect; type: in vivo; conditions: 3 weeks
Outline: as §1

Oryza sativa [9] = experiment: Post-emergence herbicidal effect and crop plant compatibility; type: in vivo; conditions: visual scoring after about 3 weeks
Outline: (§2)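 Scoring: visual, percent, about 3 weeks post-treatment, untreated plants as 0% reference and dead plants as 100%. Treatment: spray of WP/EC formulation (600 to 800 L/ha water, 0.2% wetting agent) on one-leaf-stage plants grown in sandy loam under greenhouse conditions.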

[10] = test system: Triticum aestivum (spring); experiment: as above; type: in vivo; conditions: visual scoring after about 3 weeks
Outline: as §2

Zea mays [11] = experiment: as above; type: in vivo; conditions: visual scoring after about 3 weeks
Outline: as §2

Avena fatua [12] = experiment: Post-emergence herbicidal effect; type: in vivo; conditions: 320 g/ha, visual scoring after about 3 weeks
Description: (§3) Seeds of monocotyledonous and dicotyledonous weed and crop plants are laid out in sandy loam in wood-fiber pots, covered with soil and cultivated in a greenhouse under good growth conditions. 2 to 3 weeks after sowing, the test plants are treated at the one-leaf stage. The compounds of the invention, formulated in the form of wettable powders (WP) or as emulsion concentrates (EC), are then sprayed onto the green parts of the plants as aqueous suspension or emulsion at a water application rate equating to 600 to 800 L/ha with addition of 0.2% wetting agent. After the trial plants have been left to stand in a greenhouse under optimal growth conditions for about 3 weeks, the efficacy of the formulations is scored visually in comparison to untreated controls (herbicidal action in percent (%): 100% efficacy=the plants have died, 0% efficacy=like control plants).

Echinochloa crus-galli [13] = experiment: Post-emergence herbicidal effect; type: in vivo; conditions: visual scoring after about 3 weeks
Description: as §3

Ipomoea purpurea = experiment: Post-emergence herbicidal effect; type: in vivo; conditions: scoring after about 3 weeks
Description: as §3

[14] = test system: Triticum aestivum (spring); experiment: Pre-emergence herbicidal effect and crop plant compatibility; type: in vivo; conditions: 3 weeks
Outline: as §1

Abutilon theophrasti = experiment: Pre-emergence herbicidal effect; type: in vivo; conditions: 320 g/ha, 3 weeks
Outline: as §1

Alopecurus myosuroides [15] = experiment: Post-emergence herbicidal effect; type: in vivo; conditions: 320 g/ha, visual scoring after about 3 weeks
Description: as §3

Lolium multiflorum [16] = experiment: Post-emergence herbicidal effect; type: in vivo; conditions: visual scoring after about 3 weeks
Description: as §3

Setaria viridis [17] = experiment: Post-emergence herbicidal effect; type: in vivo; conditions: 320 g/ha (dose by row order of upper half), scoring after about 3 weeks
Description: as §3

[18] = 320 g/ha (dose by row order of upper half)

Compound	logp (HCOOH) [1]	ZEAMX herbicidal activity in percent (Zea mays [3]; 80 g/ha) [%]	ALOMY herbicidal activity in percent (Alopecurus myosuroides [4]; 80 g/ha) [%]	ALOMY herbicidal activity in percent (Alopecurus myosuroides [4]; 320 g/ha) [%]	AMARE herbicidal activity in percent (Amaranthus retroflexus; 80 g/ha) [%]	AMARE herbicidal activity in percent (Amaranthus retroflexus; 320 g/ha) [%]	ECHCG herbicidal activity in percent (Echinochloa crus-galli [6]; 80 g/ha) [%]	ECHCG herbicidal activity in percent (Echinochloa crus-galli [6]; 320 g/ha) [%]	LOLMU herbicidal activity in percent (Lolium multiflorum [7]; 320 g/ha) [%]	MATIN herbicidal activity in percent (Matricaria inodora; 80 g/ha) [%]	MATIN herbicidal activity in percent (Matricaria inodora; 320 g/ha) [%]	POLCO herbicidal activity in percent (Polygonum convolvulus; 320 g/ha) [%]	SETVI herbicidal activity in percent (Setaria viridis [8]; 80 g/ha) [%]	SETVI herbicidal activity in percent (Setaria viridis [8]; 320 g/ha) [%]	STEME herbicidal activity in percent (Stellaria media; 80 g/ha) [%]	STEME herbicidal activity in percent (Stellaria media; 320 g/ha) [%]	VERPE herbicidal activity in percent (Veronica persica; 80 g/ha) [%]	VERPE herbicidal activity in percent (Veronica persica; 320 g/ha) [%]	VIOTR herbicidal activity in percent (Viola tricolor; 80 g/ha) [%]	VIOTR herbicidal activity in percent (Viola tricolor; 320 g/ha) [%]	further results
Cc1ccc2c(c1)[C@H](Nc1ncc3c(n1)CC(C)CC3=O)[C@@H](C)C2 (some centres unmarked) [2.44]	oily; logp (HCOOH): 3.90;	10	80	100	100	100	90	100	100	90	100	100	100	100	100	100	100	100	100	100	ORYSA herbicidal activity in percent (Oryza sativa [2]): 20%; AVEFA herbicidal activity in percent (Avena fatua [5]; 80 g/ha): 0%; AVEFA herbicidal activity in percent (Avena fatua [5]; 320 g/ha): 80%; LOLMU herbicidal activity in percent (Lolium multiflorum [7]; 80 g/ha): 100%; POLCO herbicidal activity in percent (Polygonum convolvulus; 80 g/ha): 90%; post-emergence efficacy ORYSA (Oryza sativa [9]; 80 g/ha): 0%; post-emergence efficacy ORYSA (Oryza sativa [9]; 320 g/ha): 0%; post-emergence efficacy TRZAS ([10]; 80 g/ha): 0%; post-emergence efficacy TRZAS ([10]; 320 g/ha): 0%; post-emergence efficacy ZEAMX (Zea mays [11]; 80 g/ha): 10%; post-emergence efficacy AVEFA (Avena fatua [12]): 90%; post-emergence efficacy ECHCG (Echinochloa crus-galli [13]; 80 g/ha): 100%; post-emergence efficacy ECHCG (Echinochloa crus-galli [13]; 320 g/ha): 100%; post-emergence efficacy PHBPU (Ipomoea purpurea; 80 g/ha (dose by row order of upper half)): 100%; post-emergence efficacy PHBPU (Ipomoea purpurea; [18]): 100%
Cc1ccc2c(c1)[C@H](Nc1ncc3c(n1)CC(C(F)(F)F)CC3=O)[C@@H](C)C2 (some centres unmarked) [2.46]	oily; logp (HCOOH): 3.24; 1H-NMR (CDCl3, 400 MHZ, δ in ppm): 1.25 (t, 3H, CH3);	0	90	90	90	100	90	100	100	90	100	100	90	90	100	100	100	100	100	100	TRZAS herbicidal activity in percent ([14]; 80 g/ha): 0%; TRZAS herbicidal activity in percent ([14]; 320 g/ha): 0%; ZEAMX herbicidal activity in percent (Zea mays [3]; 320 g/ha): 0%; ABUTH herbicidal activity in percent (Abutilon theophrasti): 80%; LOLMU herbicidal activity in percent (Lolium multiflorum [7]; 80 g/ha): 100%; post-emergence efficacy ORYSA (Oryza sativa [9]; 80 g/ha): 10%; post-emergence efficacy ORYSA (Oryza sativa [9]; 320 g/ha): 20%; post-emergence efficacy TRZAS ([10]; 80 g/ha): 10%; post-emergence efficacy TRZAS ([10]; 320 g/ha): 10%; post-emergence efficacy ZEAMX (Zea mays [11]; 80 g/ha): 0%; post-emergence efficacy ZEAMX (Zea mays [11]; 320 g/ha): 0%; post-emergence efficacy ALOMY (Alopecurus myosuroides [15]): 100%; post-emergence efficacy LOLMU (Lolium multiflorum [16]; 80 g/ha): 80%; post-emergence efficacy LOLMU (Lolium multiflorum [16]; 320 g/ha): 100%
Cc1ccc2c(c1)[C@H](Nc1ncc3c(n1)COCC3=O)[C@@H](C)C2 [2.97]	oily; logp (HCOOH): 3.26; 1H-NMR (CDCl3, 400 MHZ, δ in ppm): ): 1.25 (t, 3H,	0	100	100	100	100	100	100	100	100	100	100	100	100	100	100	100	100	100	100	TRZAS herbicidal activity in percent ([14]; 80 g/ha): 10%; TRZAS herbicidal activity in percent ([14]; 320 g/ha): 20%; AVEFA herbicidal activity in percent (Avena fatua [5]; 320 g/ha): 100%; POLCO herbicidal activity in percent (Polygonum convolvulus; 80 g/ha): 100%; post-emergence efficacy TRZAS ([10]; 80 g/ha): 0%; post-emergence efficacy TRZAS ([10]; 320 g/ha): 0%; post-emergence efficacy ALOMY (Alopecurus myosuroides [15]): 100%; post-emergence efficacy ECHCG (Echinochloa crus-galli [13]; 80 g/ha): 90%; post-emergence efficacy ECHCG (Echinochloa crus-galli [13]; 320 g/ha): 100%; post-emergence efficacy PHBPU (Ipomoea purpurea; [18]): 100%; post-emergence efficacy LOLMU (Lolium multiflorum [16]; 320 g/ha): 100%; post-emergence efficacy SETVI (Setaria viridis [17]): 80%
